Measured values: patent publication US10273226B2, “Pyrazolyl-heteroarylamides as pesticides” (Bayer Animal Health GmbH, priority 2014, dated 2019)

Key:
Format in all cases: in vivo
Ctenocephalides felis [1] = test: Ctenocephalides felis in vitro contact test with adult cat fleas; conditions: application rate 5 μg/cm^2 (500 g/ha); after 48 h; fleas dead or moribund
Procedure: Ctenocephalides felis—In Vitro Contact Tests with Adult Cat Fleas
For the coating of the test tubes, 9 mg of active ingredient are first dissolved in 1 ml of acetone p.a. and then diluted to the desired concentration with acetone p.a. 250 μl of the solution are distributed homogeneously on the inner walls and base of a 25 ml test tube by turning and rocking on an orbital shaker (rocking rotation at 30 rpm for 2 h). With 900 ppm active ingredient solution and internal surface 44.7 cm^2, given homogeneous distribution, an area-based dose of 5 μg/cm^2 is achieved.
After the solvent has evaporated off, the tubes are populated with 5-10 adult cat fleas (Ctenocephalides felis), sealed with a perforated plastic lid and incubated in a horizontal position at room temperature and ambient humidity. After 48 h, efficacy is determined. To this end, the test tubes are stood upright and the fleas are knocked to the base of the tube. Fleas which remain motionless at the base or move in an uncoordinated manner are considered to be dead or moribund.
100% efficacy means that all the fleas were dead or moribund. 0% efficacy means that no fleas were harmed.

Rhipicephalus sanguineus = Rhipicephalus sanguineus in vitro contact test with adult brown dog ticks; conditions: after 48 h, ticks dead or moribund
Method in brief: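 Test tubes (25 ml) were coated by dissolving active ingredient in acetone p.a., diluting to the required concentration, and spreading 250 μl over the inner walls and base on an orbital shaker at 30 rpm for 2 h. Once dry, 5-10 adult Rhipicephalus sanguineus were added, and tubes were capped with perforated lids and kept horizontal in darkness at room temperature. At 48 h, ticks were knocked down and heated at 45-50° C. for up to 5 min. Those unable to climb away were counted dead or moribund, and efficacy ran from 0% to 100%.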

Boophilus microplus = Boophilus microplus injection test; conditions: application rate 20 μg/animal; injection into abdomen; assessed after 7 days
Method in brief: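 Engorged adult female Boophilus microplus ticks (5 per dose) each received a 1 μl abdominal injection of compound in DMSO and were held in a climate-controlled room. Efficacy was scored after 7 days from fertile egg laying, with unclear eggs kept until hatching (~42 days); 100% means no fertile eggs.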

Ctenocephalides felis [2] = test: Ctenocephalides felis oral test; conditions: application rate 100 ppm in citrated cattle blood; after 2 days
Method in brief: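 Fleas ingest treated citrated cattle blood (DMSO formulation) through parafilm; percent killed assessed after two days.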

Lucilia cuprina = Lucilia cuprina test; conditions: application rate 100 ppm; L1 larvae; after 2 days
Method in brief: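 Mortality read at 2 days as percent larvae killed (100% = all, 0% = none). Test used roughly 20 first-instar larvae on minced horsemeat dosed with water-diluted DMSO formulation of compound.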

Myzus persicae = Myzus persicae spray test; conditions: after 6 days
Procedure: Myzus persicae—Spray Test
To produce an appropriate active ingredient formulation, 1 part by weight of active ingredient is dissolved using the specified parts by weight of solvent and made up with water containing an emulsifier concentration of 1000 ppm until the desired concentration is attained. To produce further test concentrations, the preparation is diluted with emulsifier-containing water.
Discs of Chinese cabbage leaves (Brassica pekinensis) infested by all stages of the green peach aphid (Myzus persicae) are sprayed with an active ingredient formulation of the desired concentration.
After 6 days, efficacy in % is determined. 100% means that all the aphids have been killed; 0% means that none of the aphids have been killed.

Phaedon cochleariae = Phaedon cochleariae spray test; conditions: larvae, after 7 days
Method in brief: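 Mortality of Phaedon larvae, in %, was read 7 days after release onto sprayed, dried Brassica pekinensis leaf discs. Test dilutions were prepared in water with 1000 ppm emulsifier. A score of 0% means no larvae died and 100% means all were killed.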

Spodoptera frugiperda = Spodoptera frugiperda spray test; conditions: caterpillars, after 7 days
Method in brief: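 Percent kill of armyworm caterpillars was scored 7 days after they were placed on dried, sprayed Zea mays leaf discs. Spray solutions were made by dissolving active ingredient in solvent and diluting with 1000 ppm emulsifier water.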

Tetranychus urticae = Tetranychus urticae spray test, OP-resistant; conditions: after 6 days
Method in brief: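 Percent kill is assessed 6 days after spraying infested Phaseolus vulgaris leaf discs, with all mite stages present. Compound is applied as a solvent/emulsifier aqueous formulation at the desired concentration.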

Musca domestica = Musca domestica test; conditions: application rate 100 ppm; adult houseflies; after 2 days
Procedure: Solvent: dimethyl sulphoxide
To produce an appropriate active ingredient formulation, 10 mg of active ingredient are mixed with 0.5 ml of dimethyl sulphoxide, and the concentrate is diluted with water to the desired concentration.
Vessels containing a sponge treated with sugar solution and the active ingredient formulation of the desired concentration are populated with 10 adult houseflies (Musca domestica).
After 2 days, the kill in % is determined. 100% means that all of the flies have been killed; 0% means that none of the flies have been killed.

[3] = application rate 5 μg/cm^2 (500 g/ha)

| SMILES | efficacy (Ctenocephalides felis [1]) | efficacy (Rhipicephalus sanguineus; [3]) | efficacy (laying of fertile eggs) (Boophilus microplus) | efficacy (kill in %) (Ctenocephalides felis [2]) | efficacy (kill in %) (Lucilia cuprina) | efficacy (Myzus persicae; application rate 500 g/ha) | efficacy (Phaedon cochleariae; application rate 500 g/ha) | efficacy (Spodoptera frugiperda; application rate 500 g/ha) | efficacy (Tetranychus urticae; application rate 500 g/ha) | efficacy (kill in %) (Musca domestica) | efficacy (Myzus persicae; application rate 100 g/ha) | efficacy (Phaedon cochleariae; application rate 100 g/ha) | efficacy (Spodoptera frugiperda; application rate 100 g/ha) | efficacy (Tetranychus urticae; application rate 100 g/ha) | efficacy (Rhipicephalus sanguineus; application rate 1 μg/cm^2 (100 g/ha)) |
| --- | --- | --- | --- | --- | --- | --- | --- | --- | --- | --- | --- | --- | --- | --- | --- |
| Cn1nc(C(F)(F)C(F)(F)F)c(C(F)(F)F)c1-n1cc(-c2cccc(NC(=O)c3ccsc3)c2)cn1 [Example 1-016] | 100% | 100% | 100% | 100% | 100% | 90% | 100% | 100% | 100% |  |  |  |  |  |  |
| Cn1nc(C(F)(F)C(F)(F)F)c(C(F)(F)F)c1-n1cc(-c2ccc(F)c(NC(=O)c3ncccn3)c2)cn1 [Example 1-036] | 100% | 100% | 100% | 100% | 100% |  |  |  |  | 100% | 100% | 100% | 100% |  |  |
| Cn1nc(C(F)(F)C(F)(F)F)c(C(F)(F)F)c1-n1cc(-c2cccc(NC(=O)c3ccc(F)cc3)c2)cn1 [Example 1-003] | 100% | 100% | 100% | 100% | 100% |  |  |  |  | 100% | 90% | 100% | 100% | 100% |  |
| COCC(=O)Nc1cc(-c2cnn(-c3c(C(F)(F)F)c(C(F)(F)C(F)(F)F)nn3C)c2)ccc1F [Example 1-048] |  | 100% | 100% | 95% | 95% |  |  |  |  |  | 90% |  |  | 100% |  |
| Cc1oncc1C(=O)Nc1cc(-c2cnn(-c3c(C(F)(F)F)c(C(F)(F)C(F)(F)F)nn3C)c2)ccc1F [Example 1-081] | 100% | 100% | 100% | 100% | 100% |  |  |  |  |  | 100% | 100% | 100% | 100% |  |
| Cn1nc(C(F)(F)C(F)(F)F)c(C(F)(F)F)c1-n1cc(-c2ccc(F)c(NC(=O)c3cncc(F)c3)c2)cn1 [Example 1-086] | 100% | 100% | 100% | 100% | 100% |  |  |  |  | 100% | 100% | 100% | 100% | 90% |  |
| Cn1nc(C(F)(F)C(F)(F)F)c(C(F)(F)F)c1-n1cc(-c2ccc(F)c(NC(=O)C(F)(F)C(F)F)c2)cn1 [Example 1-033] |  |  | 100% | 100% | 100% |  |  |  |  |  | 90% | 83% |  | 100% | 100% |
| CCC(=O)Nc1cc(-c2cnn(-c3c(C(F)(F)F)c(C(F)(F)C(F)(F)F)nn3C)c2)ccc1F [Example 1-076] | 100% | 100% | 100% | 100% | 95% |  |  |  |  |  | 100% | 100% | 100% | 90% |  |
| Cn1nc(C(F)(F)C(F)(F)F)c(C(F)(F)F)c1-n1cc(-c2cccc(NC(=O)c3ccnc(Cl)c3)c2)cn1 [Example 1-006] | 100% |  | 100% | 100% | 100% |  |  |  |  | 100% | 100% | 100% | 100% | 100% |  |
| CC(C)C(=O)Nc1cc(-c2cnn(-c3c(C(F)(F)F)c(C(F)(F)C(F)(F)F)nn3C)c2)ccc1F [Example 1-064] | 100% | 100% | 100% | 100% | 100% |  |  |  |  |  | 100% | 100% | 100% | 100% |  |
| Cn1nc(C(F)(F)C(F)(F)F)c(C(F)(F)F)c1-n1cc(-c2cnc(Cl)c(NC(=O)c3ccncc3)c2)cn1 [Example 2-006] | 100% | 80% | 100% | 100% | 100% |  |  |  |  | 90% |  | 100% | 100% | 100% |  |
| Cn1nc(C(F)(F)C(F)(F)F)c(C(F)(F)F)c1-n1cc(-c2cccc(NC(=O)c3cccs3)c2)cn1 [Example 1-017] |  | 100% | 100% | 100% | 100% |  |  |  |  |  | 90% | 100% | 100% | 100% |  |
| Cn1cc(C(=O)Nc2cccc(-c3cnn(-c4c(C(F)(F)F)c(C(F)(F)C(F)(F)F)nn4C)c3)c2)cn1 [Example 1-019] |  |  | 100% | 100% | 100% |  |  |  |  | 100% | 90% | 100% | 100% | 100% |  |
| Cn1nc(C(F)(F)C(F)(F)F)c(C(F)(F)F)c1-n1cc(-c2ccc(F)c(NC(=O)c3ccc(Cl)c(F)c3)c2)cn1 [Example 1-096] | 100% | 100% | 100% | 100% | 100% |  |  |  |  | 90% |  | 100% | 100% | 100% |  |
| Cn1nc(C(F)(F)C(F)(F)F)c(C(F)(F)F)c1-n1cc(-c2cccc(NC(=O)c3ccccc3F)c2)cn1 [Example 1-012] | 100% | 100% | 100% | 100% | 100% |  |  |  |  |  | 90% | 100% | 100% | 100% |  |
| Cn1nc(C(F)(F)C(F)(F)F)c(C(F)(F)F)c1-n1cc(-c2cccc(NC(=O)C(F)(F)C(F)F)c2)cn1 [Example 1-009] |  | 100% | 100% | 100% | 100% |  | 100% | 100% | 100% |  | 100% |  |  |  |  |
